From patent US20250074892A1, “CARBONYL BRIDGED HETEROCYCLIC COMPOUND, AND COMPOSITION AND APPLICATION THEREOF” (BEIJING SCITECH-MQ PHARMACEUTICALS LIMITED, priority 2022, published 2025)

Tests used:
HT29 cells = assay: Inhibition of cell necrosis (CCK8 method), HT29 cells; format: cell-based, human; settings: Homo sapiens, HT-29, 16 h, HT29, Human TNF-α/AT-406/Z-VAD-FMK, 16 hours, CCK8
Method: (§1) In this assay example 2, under the condition of inducing programmed cell necrosis of HT29 and L929 cell lines, different concentrations of the test compounds were added to test the IC50 of the rescue effect of the test compounds on the programmed necrosis.
(§2) • Compounds: dissolved in DMSO to make a 10 mM solution; • TNF-α: initial concentration of 100 µg/mL; • Z-VAD-FMK: dissolved in DMSO to make a 10 mM solution; • AT-406: dissolved in DMSO to make a 10 mM solution. • Cell lines: HT29 cells were cultured in McCoy's 5A medium containing 10% fetal bovine serum, 100 U/mL penicillin, and 100 µg/mL streptomycin, and L929 cells were cultured in MEM medium containing 10% horse serum, 100 U/mL penicillin, and 100 µg/mL streptomycin.
(§3) 1. The test compound was dissolved in DMSO to form a stock solution, and a gradient dilution was performed; the solution was then diluted with the corresponding culture medium to obtain a solution with 10 times the working concentration.
(§4) 2. The cells in the logarithmic growth phase were diluted with culture medium to a specific cell concentration. 80 µL of the cell suspension was added to a 96-well plate, so that the cell densities of HT29 and L929 were 1.2*10^4 cells/well and 2.0*10^4 cells/well, respectively. The plate was cultured in a 37° C., 5% carbon dioxide incubator overnight.
(§5) 3. […] of the compound solution was added to each well of the 96-well plate inoculated with cells. The compounds to be tested were serially diluted 4-fold to obtain 9 concentrations in duplicate, starting from a maximum concentration of 10 μM. At the same time, a control group without compound addition was set up.
(§6) 4. After the cells were cultured for another 30 minutes, 10 μL of the inducer mixture was added to each well. The final concentrations of Human TNF-α, AT-406 and Z-VAD-FMK in HT29 cells were 20 ng/mL, […] and 20 μM, respectively; and the final concentrations of Murine TNF-α and Z-VAD-FMK in L929 cells were 20 ng/mL and 25 μM, respectively.
(§7) 5. The 96-well plate in which compounds and inducer were added was placed in a 37° C., 5% carbon dioxide incubator for further culture, wherein HT29 cells were cultured for 16 hours and L929 cells were cultured for 4-8 hours. Cell viability was detected by CCK8. GraphPad Prism software was used to prepare a dose-effect curve and IC50 was calculated.

L929 cells = assay: Inhibition of cell necrosis (CCK8 method), L929 cells; format: cell-based, mouse; settings: 4-8 hours, CCK8
Method: as §1, §2, §3, §4, §5, §6, §7

[1] = Mus musculus, L929, L929, Murine TNF-α/Z-VAD-FMK

Compound	IC50 (HT29 cells)	IC50 (L929 cells; [1])	IC50 (L929 cells; L929, Murine TNF-α/Z-VAD-FMK)
CC(C)(O)CCOc1ccc(F)c(-c2ccnc(N3CCC(C(=O)N4N=CCC4c4cc(F)cc(F)c4)CC3)c2)c1 (racemic) [Example 21, (5-(3,5-difluorophenyl)-4,5-dihydro-1H-pyrazol-1-yl)(1-(4-(2-fluoro-5-(3-hydroxy-3-methylbutoxy)phenyl)pyridin-2-yl)piperidin-4-yl)methanone]	≤ 10 nM	10 to 50 nM	–
CC(C)(O)COc1ccc(F)c(-c2ccnc(N3CCC(C(=O)N4N=CCC4c4cc(F)cc(F)c4)CC3)c2)c1 (racemic) [Example 23, (5-(3,5-difluorophenyl)-4,5-dihydro-1H-pyrazol-1-yl)(1-(4-(2-fluoro-5-(2-hydroxy-2-methylpropoxy)phenyl)pyridin-2-yl)piperidin-4-yl)methanone]	≤ 10 nM	≤ 10 nM	–
CC(C)(O)CCCOc1ccc(F)c(-c2ccnc(N3CCC(C(=O)N4N=CCC4c4cc(F)cc(F)c4)CC3)c2)c1 (racemic) [Example 24, (5-(3,5-difluorophenyl)-4,5-dihydro-1H-pyrazol-1-yl)(1-(4-(2-fluoro-5-((4-hydroxy-4-methylpentyl)oxy)phenyl)pyridin-2-yl)piperidin-4-yl)methanone]	≤ 10 nM	10 to 50 nM	–
CC(C)(O)CCOc1ccc(F)c(-c2ccnc(N3CCC(C(=O)N4N=CC[C@H]4c4cc(F)cc(F)c4)CC3)c2)c1 (racemic) [Example 41]	≤ 10 nM	10 to 50 nM	–
CC(C)(O)CCCOc1ccc(F)c(-c2ccnc(N3CCC(C(=O)N4N=CC[C@H]4c4cc(F)cc(F)c4)CC3)c2)c1 (racemic) [Example 43]	≤ 10 nM	10 to 50 nM	–
COCCOc1cccc(-c2ccnc(N3CCC(C(=O)N4N=CCC4c4cc(F)cc(F)c4)CC3)c2)c1 (stereo not shown) [Example 1, (5-(3,5-difluorophenyl)-4,5-dihydro-1H-pyrazol-1-yl)(1-(4-(3-(2-methoxyethoxy)phenyl)pyridin-2-yl)piperidin-4-yl)methanone]	10 to 50 nM	50 to 100 nM	–
COCCCOc1cccc(-c2ccnc(N3CCC(C(=O)N4N=CCC4c4cc(F)cc(F)c4)CC3)c2)c1 (stereo not shown) [Example 2, (5-(3,5-difluorophenyl)-4,5-dihydro-1H-pyrazol-1-yl)(1-(4-(3-(3-methoxypropoxy)phenyl)pyridin-2-yl)piperidin-4-yl)methanone]	10 to 50 nM	50 to 100 nM	–
O=C(C1CCN(c2cc(-c3cccc(OC4CCOCC4)c3)ccn2)CC1)N1N=CCC1c1cc(F)cc(F)c1 (stereo not shown) [Example 3, (5-(3,5-difluorophenyl)-4,5-dihydro-1H-pyrazol-1-yl)(1-(4-(3-((tetrahydro-2H-pyran-4-yl)oxy)phenyl)pyridin-2-yl)piperidin-4-yl)methanone]	10 to 50 nM	50 to 100 nM	–
COCCOc1ccc(C)c(-c2ccnc(N3CCC(C(=O)N4N=CCC4c4cc(F)cc(F)c4)CC3)c2)c1 (stereo not shown) [Example 4, (5-(3,5-difluorophenyl)-4,5-dihydro-1H-pyrazol-1-yl)(1-(4-(5-(2-methoxyethoxy)-2-methylphenyl)pyridin-2-yl)piperidin-4-yl)methanone]	10 to 50 nM	10 to 50 nM	–
COCCCOc1ccc(C)c(-c2ccnc(N3CCC(C(=O)N4N=CCC4c4cc(F)cc(F)c4)CC3)c2)c1 (stereo not shown) [Example 5, (5-(3,5-difluorophenyl)-4,5-dihydro-1H-pyrazol-1-yl)(1-(4-(5-(3-methoxypropoxy)-2-methylphenyl)pyridin-2-yl)piperidin-4-yl)methanone]	10 to 50 nM	50 to 100 nM	–
Cc1ccc(OC2CCOCC2)cc1-c1ccnc(N2CCC(C(=O)N3N=CCC3c3cc(F)cc(F)c3)CC2)c1 (stereo not shown) [Example 6, (5-(3,5-difluorophenyl)-4,5-dihydro-1H-pyrazol-1-yl)(1-(4-(2-methyl-5-((tetrahydro-2H-pyran-4-yl)oxy)phenyl)pyridin-2-yl)piperidin-4-yl)methanone]	10 to 50 nM	50 to 100 nM	–
O=C(C1CCN(c2cc(-c3cccc(OCCCCO)c3)ccn2)CC1)N1N=CCC1c1cc(F)cc(F)c1 (stereo not shown) [Example 7, (5-(3,5-difluorophenyl)-4,5-dihydro-1H-pyrazol-1-yl)(1-(4-(3-(4-hydroxybutoxy)phenyl)pyridin-2-yl)piperidin-4-yl)methanone]	10 to 50 nM	10 to 50 nM	–
CC(C)(O)CCCOc1cccc(-c2ccnc(N3CCC(C(=O)N4N=CCC4c4cc(F)cc(F)c4)CC3)c2)c1 (stereo not shown) [Example 8, (5-(3,5-difluorophenyl)-4,5-dihydro-1H-pyrazol-1-yl)(1-(4-(3-((4-hydroxy-4-methylpentyl)oxy)phenyl)pyridin-2-yl)piperidin-4-yl)methanone]	10 to 50 nM	10 to 50 nM	–
Cc1ccc(OCCCCO)cc1-c1ccnc(N2CCC(C(=O)N3N=CCC3c3cc(F)cc(F)c3)CC2)c1 (stereo not shown) [Example 9, (5-(3,5-difluorophenyl)-4,5-dihydro-1H-pyrazol-1-yl)(1-(4-(5-(4-hydroxybutoxy)-2-methylphenyl)pyridin-2-yl)piperidin-4-yl)methanone]	10 to 50 nM	–	10 to 50 nM
Cc1ccc(OCCCC(C)(C)O)cc1-c1ccnc(N2CCC(C(=O)N3N=CCC3c3cc(F)cc(F)c3)CC2)c1 (stereo not shown) [Example 10, (5-(3,5-difluorophenyl)-4,5-dihydro-1H-pyrazol-1-yl)(1-(4-(5-((4-hydroxy-4-methylpentyl)oxy)-2-methylphenyl)pyridin-2-yl)piperidin-4-yl)methanone]	≤ 10 nM	≤ 10 nM	–
Cc1ccc(OCCC2CCOCC2)cc1-c1ccnc(N2CCC(C(=O)N3N=CCC3c3cc(F)cc(F)c3)CC2)c1 (stereo not shown) [Example 11, (5-(3,5-difluorophenyl)-4,5-dihydro-1H-pyrazol-1-yl)(1-(4-(2-methyl-5-(2-(tetrahydro-2H-pyran-4-yl)ethoxy)phenyl)pyridin-2-yl)piperidin-4-yl)methanone]	10 to 50 nM	50 to 100 nM	–
O=C(C1CCN(c2cc(-c3cccc(OCCCO)c3)ccn2)CC1)N1N=CCC1c1cc(F)cc(F)c1 (stereo not shown) [Example 12, (5-(3,5-difluorophenyl)-4,5-dihydro-1H-pyrazol-1-yl)(1-(4-(3-(3-hydroxypropoxy)phenyl)pyridin-2-yl)piperidin-4-yl)methanone]	≤ 10 nM	50 to 100 nM	–
COCCCCOc1cccc(-c2ccnc(N3CCC(C(=O)N4N=CCC4c4cc(F)cc(F)c4)CC3)c2)c1 (stereo not shown) [Example 13, (5-(3,5-difluorophenyl)-4,5-dihydro-1H-pyrazol-1-yl)(1-(4-(3-(4-methoxybutoxy)phenyl)pyridin-2-yl)piperidin-4-yl)methanone]	10 to 50 nM	50 to 100 nM	–
O=C(C1CCN(c2cc(-c3cccc(OCC4CCOCC4)c3)ccn2)CC1)N1N=CCC1c1cc(F)cc(F)c1 (stereo not shown) [Example 14, (5-(3,5-difluorophenyl)-4,5-dihydro-1H-pyrazol-1-yl)(1-(4-(3-((tetrahydro-2H-pyran-4-yl)methoxy)phenyl)pyridin-2-yl)piperidin-4-yl)methanone]	10 to 50 nM	10 to 50 nM	–
Cc1ccc(OCCCO)cc1-c1ccnc(N2CCC(C(=O)N3N=CCC3c3cc(F)cc(F)c3)CC2)c1 (stereo not shown) [Example 15, (5-(3,5-difluorophenyl)-4,5-dihydro-1H-pyrazol-1-yl)(1-(4-(5-(3-hydroxypropoxy)-2-methylphenyl)pyridin-2-yl)piperidin-4-yl)methanone]	≤ 10 nM	10 to 50 nM	–
COCCOc1ccc(Cl)c(-c2ccnc(N3CCC(C(=O)N4N=CCC4c4cc(F)cc(F)c4)CC3)c2)c1 (stereo not shown) [Example 16, (1-(4-(2-chloro-5-(2-methoxyethoxy)phenyl)pyridin-2-yl)piperidin-4-yl)(5-(3,5-difluorophenyl)-4,5-dihydro-1H-pyrazol-1-yl)methanone]	10 to 50 nM	50 to 100 nM	–
O=C(C1CCN(c2cc(-c3cc(OCCCO)ccc3Cl)ccn2)CC1)N1N=CCC1c1cc(F)cc(F)c1 (stereo not shown) [Example 17, (1-(4-(2-chloro-5-(3-hydroxypropoxy)phenyl)pyridin-2-yl)piperidin-4-yl)(5-(3,5-difluorophenyl)-4,5-dihydro-1H-pyrazol-1-yl)methanone]	10 to 50 nM	50 to 100 nM	–
COCCOc1ccc(C)c(-c2ccnc(N3CCC(C(=O)N4N=CCC4c4ccccc4F)CC3)c2)c1 (stereo not shown) [Example 19, (5-(2-fluorophenyl)-4,5-dihydro-1H-pyrazol-1-yl)(1-(4-(5-(2-methoxyethoxy)-2-methylphenyl)pyridin-2-yl)piperidin-4-yl)methanone]	≤ 10 nM	10 to 50 nM	–
